Measured values published in patent US10022447B2, “Solid pharmaceutical compositions containing pregabalin” (Warner-Lambert Company LLC, priority 2005, dated 2018).

Test: Clinical studies of regional GI absorption of pregabalin
Type: in vivo
Details: humans
Excerpt: Once daily dosing of pregabalin, however, presents numerous challenges. Conventional extended release (ER) compositions are problematic for QD dosing because pregabalin is not absorbed uniformly in the gastrointestinal (GI) tract. […] Furthermore, pregabalin is a γ-amino acid which under normal storage conditions may undergo intramolecular cyclization to form a lactam, 4-isobutyl-pyrrolidin-2-one. See, e.g., WO 99/10186 and WO 99/59573, both to A. Aomatsu. Although it is known that the non-active components of the pharmaceutical composition may affect lactam formation, it is difficult to predict which excipients may lead to undesirable lactam formation.

## CC(C)C[C@H](CN)CC(=O)O [pregabalin, (S)-(+)-3-aminomethyl-5-methyl-hexanoic acid]
  mean absorption window: about six hours or less
  regional absorption in the GI tract: poorly absorbed beyond the hepatic flexure
